The structures appear in SMILES notation.

The values below come from publication PMC3049928 (Archives of biochemistry and biophysics, 2010).

The target in the assay is SULT1A1 (human phenol sulfotransferase, human sulfotransferase 1A1) (Homo sapiens, UniProt P50225). The assay is described as follows: pNPS assay of PAP sulfation, p-nitrophenol absorbance at […] nm. Format: biochemical.
Sequence of SULT1A1 (human phenol sulfotransferase, human sulfotransferase 1A1) (P50225 whole entry): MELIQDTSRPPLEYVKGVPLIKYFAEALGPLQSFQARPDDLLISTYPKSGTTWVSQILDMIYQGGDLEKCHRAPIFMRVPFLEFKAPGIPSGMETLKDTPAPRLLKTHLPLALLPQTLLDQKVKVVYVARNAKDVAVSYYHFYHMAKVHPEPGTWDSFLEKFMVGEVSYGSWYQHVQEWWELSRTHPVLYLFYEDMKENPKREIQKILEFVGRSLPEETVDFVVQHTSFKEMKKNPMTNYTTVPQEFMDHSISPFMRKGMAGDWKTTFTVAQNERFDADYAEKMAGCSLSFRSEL

By Ki is commonly meant the dissociation constant of the complex between target and ligand, obtained from inhibition or displacement. Higher therefore signals a looser hold on the target. Compound `Oc1ccc2ccccc2c1` [2-naphthol] yielded a Ki of 2600 ± 200 nM.
